Converted amounts (≈) assume the structure as drawn. Counter-ions that a name gives are not always drawn.
Test: Solubility of ziprasidone from conjugates in phosphate buffered saline (HPLC)
Assay type: physicochemical
Conditions: PBS, continuous agitation; for Solubility of ziprasidone, Sample Conc., 20 min: time point 20 min; for Solubility of ziprasidone, Sample Conc., 7 days: time point 7 days
Procedure: For the solubility determination, all conjugate samples were placed in Eppendorf tubes with 1-ml aliquot of phosphate buffered saline (PBS), pH adjusted to 7.4. At selected time points (20 minutes, 1 hour, 6 hours, 24 hours, and 7 days), 200 µl of PBS exposed to each sample was withdrawn and replaced with fresh medium. The samples were continuously agitated for the duration of the study. To prepare HPLC samples, the 200-μl samples were filtered through 0.22-μm syringe, filter membrane, diluted as needed, and injected at appropriately adjusted volume to determine ziprasidone concentration in solution.

Structure (SMILES) | Solubility of ziprasidone, Sample Conc., 20 min (pH 7.4) | Solubility of ziprasidone, Sample Conc., 7 days (pH 7.4) | Solubility of ziprasidone, Sample Conc., 6 hours (pH 7.4, time point 6 hours) | solubility at 24 h (phosphate buffered saline, pH 7.4, aqueous buffer, thermodynamic from solid, time point 24 hours, read-out: Solubility of ziprasidone, Sample Conc., 24 hours)
O=C1Cc2cc(CCN3CCN(c4nsc5ccccc45)CC3)c(Cl)cc2N1 [Ziprasidone Mesylate] | 1.46 µg/mL | 1.31 µg/mL | – | –
O=C1Cc2cc(CCN3CCN(c4nsc5ccccc45)CC3)c(Cl)cc2N1 [Ziprasidone Free Base, 5-[2-[4-(1,2-benzisothiazol-3-yl)-1-piperazinyl]ethyl]-6-chloro-1,3-dihydro-2H-indol-2-one] | 0.01 µg/mL | 0.01 µg/mL | 0.22 µg/mL | 2 µg/mL (≈ 4.84 µM)
